Key:
PC-3 = assay: Antiproliferative activity against human PC3 cells after 72 hrs by MTT assay; assay type: functional, cell-based
A549 = assay: Antiproliferative activity against human A549 cells after 72 hrs by MTT assay; assay type: functional, cell-based
SW-620 = assay: Antiproliferative activity against human SW620 cells after 72 hrs by MTT assay; assay type: functional, cell-based
HCT-116 = assay: Antiproliferative activity against human HCT116 cells after 72 hrs by MTT assay; assay type: functional, cell-based
HL-60 = assay: Antiproliferative activity against human HL60 cells after 72 hrs by MTT assay; assay type: functional, cell-based
[1] = target: Tumour suppressor p53/oncoprotein Mdm2 (Homo sapiens, UniProt Q00987); assay: Competitive inhibition of MDM2/P53 interaction after 1 hr by fluorescence polarization assay; assay type: protein assay
[2] = target: Tumour suppressor p53/oncoprotein Mdm2 (Homo sapiens) (UniProt P04637+Q00987); assay: Ratio of nutlin-1 IC50 to compound IC50 for MDM2 expressed in Escherichia coli BL-21 and P53 binding interaction after 1 hr by fluorescence polarization competitive binding assay
[3] = Homo sapiens, PC-3, 72 h, read-out: IC50
[4] = Homo sapiens, A549, 72 h, read-out: IC50
[5] = Homo sapiens, SW-620, 72 h, read-out: IC50
[6] = Homo sapiens, HCT-116, 72 h, read-out: IC50
[7] = Homo sapiens, HL-60, 72 h, read-out: IC50

Tumour suppressor p53/oncoprotein Mdm2, sequence (P04637 whole entry): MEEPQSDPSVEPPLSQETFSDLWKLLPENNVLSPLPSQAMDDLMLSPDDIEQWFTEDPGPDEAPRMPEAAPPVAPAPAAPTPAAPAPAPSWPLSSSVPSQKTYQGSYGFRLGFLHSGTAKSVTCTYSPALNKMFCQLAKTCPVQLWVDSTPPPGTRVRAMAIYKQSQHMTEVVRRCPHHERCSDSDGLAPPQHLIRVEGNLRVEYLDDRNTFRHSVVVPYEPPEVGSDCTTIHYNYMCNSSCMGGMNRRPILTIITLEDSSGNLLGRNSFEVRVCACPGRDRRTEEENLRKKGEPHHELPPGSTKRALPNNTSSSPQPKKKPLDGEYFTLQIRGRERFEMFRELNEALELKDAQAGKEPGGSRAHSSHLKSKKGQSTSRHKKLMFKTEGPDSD
Tumour suppressor p53/oncoprotein Mdm2, sequence (Q00987 whole entry): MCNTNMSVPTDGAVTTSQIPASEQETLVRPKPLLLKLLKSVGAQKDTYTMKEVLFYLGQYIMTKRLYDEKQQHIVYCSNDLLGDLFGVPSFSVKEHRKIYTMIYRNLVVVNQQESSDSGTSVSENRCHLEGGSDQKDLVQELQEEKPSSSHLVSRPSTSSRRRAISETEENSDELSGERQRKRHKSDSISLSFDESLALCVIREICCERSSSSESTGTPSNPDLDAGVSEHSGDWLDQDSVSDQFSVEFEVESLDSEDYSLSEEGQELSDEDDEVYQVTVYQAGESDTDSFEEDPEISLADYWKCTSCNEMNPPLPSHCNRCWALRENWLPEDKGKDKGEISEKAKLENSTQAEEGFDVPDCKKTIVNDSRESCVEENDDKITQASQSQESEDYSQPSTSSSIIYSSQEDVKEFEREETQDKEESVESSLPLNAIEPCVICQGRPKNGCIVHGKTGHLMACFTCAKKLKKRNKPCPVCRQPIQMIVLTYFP
Tumour suppressor p53/oncoprotein Mdm2 (Homo sapiens), sequence (P04637 whole entry, looked up): as the sequence (P04637 whole entry) above
Tumour suppressor p53/oncoprotein Mdm2 (Homo sapiens), sequence (Q00987 whole entry, looked up): as the sequence (Q00987 whole entry) above

## COc1ccc(C2=N[C@H](c3ccc(Cl)cc3)[C@H](c3ccc(Cl)cc3)N2C(=O)NCC(=O)O)c(OC(C)C)c1
PC-3; [3]
  IC50: 3.9 µM
A549; [4]
  IC50: 0.48 µM
SW-620; [5]
  IC50: 5.7 µM
HCT-116; [6]
  IC50: 6.07 µM
HL-60; [7]
  IC50: 5.73 µM
[1]; read-out: IC50
  IC50: 6.18 µM

## COc1ccc(C2=N[C@H](c3ccc(Cl)cc3)[C@H](c3ccc(Cl)cc3)N2C(=O)N[C@H](C)C(=O)O)c(OC(C)C)c1
PC-3; [3]
  IC50: 5.59 µM
A549; [4]
  IC50: 1.67 µM
SW-620; [5]
  IC50: 9.2 µM
HCT-116; [6]
  IC50: 5.95 µM
HL-60; [7]
  IC50: 6.7 µM
[1]; read-out: IC50
  IC50: 3.27 µM

## COc1ccc(C2=N[C@H](c3ccc(Cl)cc3)[C@H](c3ccc(Cl)cc3)N2C(=O)N[C@@H](C)C(=O)O)c(OC(C)C)c1
PC-3; pc-3
  IC50: Not Active
A549; a549
  IC50: Not Active
SW-620; sw-620
  IC50: Not Active
HCT-116; hct-116
  IC50: Not Active
HL-60; hl-60
  IC50: Not Active
[1]; read-out: IC50
  IC50: 3.39 µM

## COc1ccc(C2=N[C@H](c3ccc(Cl)cc3)[C@H](c3ccc(Cl)cc3)N2C(=O)N[C@@H](C)C(=O)N2CCN(C)CC2)c(OC(C)C)c1
PC-3; pc-3
  IC50: Not Active
A549; a549
  IC50: Not Active
SW-620; sw-620
  IC50: Not Active
HCT-116; hct-116
  IC50: Not Active
HL-60; hl-60
  IC50: Not Active
[1]; read-out: IC50
  IC50: 5.96 µM

## CCOC(=O)CNC(=O)N1C(c2ccc(OC)cc2OC(C)C)=N[C@H](c2ccc(Cl)cc2)[C@@H]1c1ccc(Cl)cc1
PC-3; [3]
  IC50: 6.89 µM
A549; [4]
  IC50: 3.63 µM
SW-620; [5]
  IC50: 3.88 µM
HCT-116; [6]
  IC50: 4.74 µM
HL-60; [7]
  IC50: 2.93 µM
[1]; read-out: IC50
  IC50: 4.29 µM

## COc1ccc(C2=N[C@H](c3ccc(Cl)cc3)[C@H](c3ccc(Cl)cc3)N2C(=O)NCCC(=O)N2CCN(C)CC2)c(OC(C)C)c1
PC-3; [3]
  IC50: 6.83 µM
A549; [4]
  IC50: 5.95 µM
SW-620; [5]
  IC50: 5.99 µM
HCT-116; [6]
  IC50: 2.36 µM
HL-60; [7]
  IC50: 2.93 µM
[1]; read-out: IC50
  IC50: 5.83 µM

## CCN(CC)C(=O)[C@@H](C)NC(=O)N1C(c2ccc(OC)cc2OC(C)C)=N[C@H](c2ccc(Cl)cc2)[C@@H]1c1ccc(Cl)cc1
PC-3; [3]
  IC50: 16.8 µM
A549; [4]
  IC50: > 50 µM
SW-620; [5]
  IC50: 8.56 µM
HCT-116; [6]
  IC50: 7.53 µM
HL-60; [7]
  IC50: 8.48 µM
[1]; read-out: IC50
  IC50: 5.01 µM

## COc1ccc(C2=N[C@H](c3ccc(Cl)cc3)[C@H](c3ccc(Cl)cc3)N2C(=O)NCC(=O)N2CCCC2)c(OC(C)C)c1
PC-3; [3]
  IC50: 5.87 µM
A549; [4]
  IC50: 3.13 µM
SW-620; [5]
  IC50: 2.9 µM
HCT-116; [6]
  IC50: 3.99 µM
HL-60; [7]
  IC50: 6.11 µM
[1]; read-out: IC50
  IC50: 10.3 µM

## COc1ccc(C2=N[C@H](c3ccc(Cl)cc3)[C@H](c3ccc(Cl)cc3)N2C(=O)N[C@H](C)C(=O)N2CCN(C)CC2)c(OC(C)C)c1
PC-3; [3]
  IC50: 6.74 µM
A549; [4]
  IC50: 2.97 µM
SW-620; [5]
  IC50: 2.74 µM
HCT-116; [6]
  IC50: 3.71 µM
HL-60; [7]
  IC50: 3.17 µM
[1]; read-out: IC50
  IC50: 5.96 µM

## CCN(CC)C(=O)CCNC(=O)N1C(c2ccc(OC)cc2OC(C)C)=N[C@H](c2ccc(Cl)cc2)[C@@H]1c1ccc(Cl)cc1
PC-3; [3]
  IC50: 7.26 µM
A549; [4]
  IC50: 4.03 µM
SW-620; [5]
  IC50: 3.13 µM
HCT-116; [6]
  IC50: 6.39 µM
HL-60; [7]
  IC50: 4.62 µM
[1]; read-out: IC50
  IC50: 0.65 µM

## CCN(CC)C(=O)CNC(=O)N1C(c2ccc(OC)cc2OC(C)C)=N[C@H](c2ccc(Cl)cc2)[C@@H]1c1ccc(Cl)cc1
PC-3; [3]
  IC50: 5.84 µM
A549; [4]
  IC50: 4.33 µM
SW-620; [5]
  IC50: 12.3 µM
HCT-116; [6]
  IC50: 5.1 µM
HL-60; [7]
  IC50: 6.08 µM
[1]; read-out: IC50
  IC50: 9.41 µM

## CCOC(=O)[C@H](C)NC(=O)N1C(c2ccc(OC)cc2OC(C)C)=N[C@H](c2ccc(Cl)cc2)[C@@H]1c1ccc(Cl)cc1
PC-3; pc-3
  IC50: Not Active
A549; a549
  IC50: Not Active
SW-620; sw-620
  IC50: Not Active
HCT-116; hct-116
  IC50: Not Active
HL-60; hl-60
  IC50: Not Active
[1]; read-out: IC50
  IC50: 0.84 µM

## COc1ccc(C2=N[C@H](c3ccc(Cl)cc3)[C@H](c3ccc(Cl)cc3)N2C(=O)NCC(=O)N2CCOCC2)c(OC(C)C)c1
PC-3; [3]
  IC50: 7.02 µM
A549; [4]
  IC50: 10.9 µM
SW-620; [5]
  IC50: 6.25 µM
HCT-116; [6]
  IC50: 5.63 µM
HL-60; [7]
  IC50: 2.99 µM
[1]; read-out: IC50
  IC50: 5.27 µM
[1]; read-out: pIC50 (converted)
  IC50: 5.75 µM

## CCOC(=O)CCCNC(=O)N1C(c2ccc(OC)cc2OC(C)C)=N[C@H](c2ccc(Cl)cc2)[C@@H]1c1ccc(Cl)cc1
PC-3; [3]
  IC50: 6.2 µM
A549; [4]
  IC50: 3.25 µM
SW-620; [5]
  IC50: 8.02 µM
HCT-116; [6]
  IC50: 6.65 µM
HL-60; [7]
  IC50: 5.81 µM
[1]; read-out: IC50
  IC50: 1.66 µM

## COc1ccc(C2=N[C@H](c3ccc(Cl)cc3)[C@H](c3ccc(Cl)cc3)N2C(=O)NCC(=O)N2CCN(C)CC2)c(OC(C)C)c1
PC-3; [3]
  IC50: 3.55 µM
A549; [4]
  IC50: 3.62 µM
SW-620; [5]
  IC50: 6.17 µM
HCT-116; [6]
  IC50: 4.49 µM
HL-60; [7]
  IC50: 3.29 µM
[1]; read-out: IC50
  IC50: 20.6 µM

## COc1ccc(C2=N[C@H](c3ccc(Cl)cc3)[C@H](c3ccc(Cl)cc3)N2C(=O)NCCC(=O)N2CCOCC2)c(OC(C)C)c1
PC-3; [3]
  IC50: 7.58 µM
A549; [4]
  IC50: 3.96 µM
SW-620; [5]
  IC50: 5.89 µM
HCT-116; [6]
  IC50: 3.78 µM
HL-60; [7]
  IC50: 3.6 µM
[1]; read-out: IC50
  IC50: 2.23 µM

## CCN(CC)C(=O)[C@H](C)NC(=O)N1C(c2ccc(OC)cc2OC(C)C)=N[C@H](c2ccc(Cl)cc2)[C@@H]1c1ccc(Cl)cc1
PC-3; [3]
  IC50: 5.32 µM
A549; [4]
  IC50: 3.31 µM
SW-620; [5]
  IC50: 4.6 µM
HCT-116; [6]
  IC50: 2.01 µM
HL-60; [7]
  IC50: 4.22 µM
[1]; read-out: IC50
  IC50: 12.6 µM

## COc1ccc(C2=N[C@H](c3ccc(Cl)cc3)[C@H](c3ccc(Cl)cc3)N2C(=O)NCCCC(=O)O)c(OC(C)C)c1
PC-3; [3]
  IC50: 3.9 µM
A549; [4]
  IC50: 0.48 µM
SW-620; [5]
  IC50: 5.7 µM
HCT-116; [6]
  IC50: 6.07 µM
HL-60; [7]
  IC50: 5.73 µM
[1]; read-out: IC50
  IC50: 2.05 µM

## CCOC(=O)CCNC(=O)N1C(c2ccc(OC)cc2OC(C)C)=N[C@H](c2ccc(Cl)cc2)[C@@H]1c1ccc(Cl)cc1
PC-3; [3]
  IC50: 8.59 µM
A549; [4]
  IC50: 14.3 µM
SW-620; [5]
  IC50: 9.41 µM
HCT-116; [6]
  IC50: 9.22 µM
HL-60; [7]
  IC50: 7.82 µM
[1]; read-out: IC50
  IC50: 3.36 µM

## CCN(CC)C(=O)CCCNC(=O)N1C(c2ccc(OC)cc2OC(C)C)=N[C@H](c2ccc(Cl)cc2)[C@@H]1c1ccc(Cl)cc1
PC-3; [3]
  IC50: 7.54 µM
A549; [4]
  IC50: 1.38 µM
SW-620; [5]
  IC50: 6.45 µM
HCT-116; [6]
  IC50: 4.26 µM
HL-60; [7]
  IC50: 6.93 µM
[1]; read-out: IC50
  IC50: 4.18 µM

## COc1ccc(C2=N[C@H](c3ccc(Cl)cc3)[C@H](c3ccc(Cl)cc3)N2C(=O)NCC(=O)N2CCN(C(C)=O)CC2)c(OC(C)C)c1
PC-3; [3]
  IC50: 7.1 µM
A549; [4]
  IC50: 3.42 µM
SW-620; [5]
  IC50: 8.13 µM
HCT-116; [6]
  IC50: 6.41 µM
HL-60; [7]
  IC50: 5.48 µM
[1]; read-out: IC50
  IC50: 5.43 µM

## CCOC(=O)[C@@H](C)NC(=O)N1C(c2ccc(OC)cc2OC(C)C)=N[C@H](c2ccc(Cl)cc2)[C@@H]1c1ccc(Cl)cc1
PC-3; [3]
  IC50: 2.2 µM
A549; [4]
  IC50: 0.31 µM
[2]
  Ratio IC50: 8
SW-620; [5]
  IC50: 5.52 µM
HCT-116; [6]
  IC50: 3.73 µM
HL-60; [7]
  IC50: 3.78 µM
[1]; read-out: IC50
  IC50: 0.59 µM

## COc1ccc(C2=NC(c3ccc(Cl)cc3)C(c3ccc(Cl)cc3)N2C(=O)N2CCN(C(C)=O)CC2)c(OC(C)C)c1 (stereo not given)
PC-3; [3]
  IC50: 40.6 µM
A549; [4]
  IC50: 24 µM
SW-620; [5]
  IC50: 33.7 µM
HCT-116; [6]
  IC50: 20.5 µM
HL-60; [7]
  IC50: 19.5 µM

## COc1ccc(C2=N[C@H](c3ccc(Cl)cc3)[C@H](c3ccc(Cl)cc3)N2C(=O)NCCC(=O)O)c(OC(C)C)c1
PC-3; pc-3
  IC50: Not Active
A549; a549
  IC50: Not Active
SW-620; sw-620
  IC50: Not Active
HCT-116; hct-116
  IC50: Not Active
HL-60; hl-60
  IC50: Not Active
[1]; read-out: IC50
  IC50: 1.07 µM

Source: ChEMBL document CHEMBL1944528, “Design, synthesis and CoMFA studies of N1-amino acid substituted 2,4,5-triphenyl imidazoline derivatives as p53-MDM2 binding inhibitors” (Bioorg Med Chem, 2012)
